Laboratory results published in patent US10703764B2, “Benzopiperazine compositions as BET bromodomain inhibitors” (FORMA Therapeutics, Inc., priority 2013, dated 2020).

Tests used:
BRD4 BD1 = biological target: T1, BRD4 BD1 (Homo sapiens, UniProt O60885); test: AlphaScreen binding assay, BRD4 Bromodomain 1
T1 construct: made in house
Summary of the method: (§1)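 Compound dilution series were mixed with His-tagged BRD4 bromodomain and biotinylated tetra-acetylated H4 (1-21) peptide at pH 7.3 (BD1 and peptide at 50 nM, BD2 and peptide at 100 nM). Donor and acceptor beads were then added, and plates were equilibrated at least 1 h before reading. IC50 values were fitted with a four-parameter logistic model.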

BRD4 BD2 = biological target: T2, BRD4 BD2 (Homo sapiens, UniProt O60885); test: AlphaScreen binding assay, BRD4 Bromodomain 2
T2 construct: made in house
Summary of the method: as §1

| IC50 (BRD4 BD1) [nM] | IC50 (BRD4 BD2) [nM] | SMILES |
| --- | --- | --- |
| > 10000 | > 500 | COc1ccccc1CC(=O)N1C[C@H](C)N(C(C)=O)c2ccccc21 [Example I-711] |
| > 10000 | > 500 | CC(=O)N1c2ccccc2N(C(=O)COc2ccccc2)C[C@@H]1C [Example I-712] |
| > 10000 | > 500 | CC(=O)N1c2ccccc2N(C(=O)CC2CCCC2)C[C@@H]1C [Example I-713] |
| > 10000 | > 500 | CC(=O)N1c2ccccc2N(C(=O)C2CCCC2)C[C@@H]1C [Example I-714] |
| > 10000 | > 500 | CC(=O)N1c2ccccc2N(C(=O)[C@H](C)c2ccccc2)C[C@@H]1C [Example I-715] |
| > 10000 | > 500 | CC(=O)N1c2ccccc2N(C(=O)c2ccc3ccccc3c2)C[C@@H]1C [Example I-716] |
| > 10000 | > 500 | CC(=O)N1c2ccccc2N(C(=O)c2ccc3c(c2)CCO3)C[C@@H]1C [Example I-717] |
| > 10000 | > 500 | CC(=O)N1c2ccccc2N(C(=O)c2cccc(Cl)c2)C[C@@H]1C [Example I-718] |
| > 10000 | > 500 | CC(=O)N1c2ccccc2N(C(=O)c2cccc3ccccc23)C[C@@H]1C [Example I-719] |
| > 10000 | 50 to 500 | CC(=O)N1c2ccccc2N(C(=O)c2ccco2)C[C@@H]1C [Example I-720] |
| > 10000 | > 500 | CC(=O)N1c2ccccc2N(C(=O)c2cnc(C)cn2)C[C@@H]1C [Example I-721] |
| > 10000 | > 500 | CC(=O)N1c2ccccc2N(C(=O)c2cc(C)on2)C[C@@H]1C [Example I-722] |
| > 10000 | > 500 | CC(=O)N1c2ccccc2N(C(=O)c2ccc(-n3cccn3)cc2)C[C@@H]1C [Example I-723] |
| > 10000 | > 500 | CC(=O)N1c2ccccc2N(C(=O)c2ccc3ncsc3c2)C[C@@H]1C [Example I-724] |
| > 10000 | > 500 | CC(=O)N1c2ccccc2N(C(=O)c2csc(Nc3cccnc3)n2)C[C@@H]1C [Example I-725] |
| > 10000 | > 500 | CC(=O)N1c2ccccc2N(C(=O)c2cnc(-c3cccnc3)s2)C[C@@H]1C [Example I-726] |
| > 10000 | > 500 | CC(=O)N1c2ccccc2N(C(=O)CSc2ccccc2)C[C@@H]1C [Example I-727] |
| > 10000 | > 500 | CC(=O)N1c2ccccc2N(C(=O)c2ccc(C(C)C)cn2)C[C@@H]1C [Example I-728] |
| > 10000 | > 500 | CC(=O)N1c2ccccc2N(C(=O)c2ccc(C(C)C)nc2)C[C@@H]1C [Example I-729] |
| > 10000 | > 500 | CC(=O)N1c2ccccc2N(C(=O)c2cc3ccccc3[nH]2)CC1C (stereo not drawn) [Example I-730] |
| > 10000 | > 500 | CC(=O)N1c2ccccc2N(C(=O)Cc2cccs2)C[C@@H]1C [Example I-731] |
| > 10000 | > 500 | CC(=O)N1c2ccccc2N(C(=O)COc2ccc(Cl)cc2)C[C@@H]1C [Example I-732] |
| > 10000 | > 500 | COc1ccc(OCC(=O)N2C[C@H](C)N(C(C)=O)c3ccccc32)cc1 [Example I-733] |
| > 10000 | > 500 | CC(=O)N1c2ccccc2N(C(=O)COc2ccc3ccccc3c2)C[C@@H]1C [Example I-734] |
| > 10000 | > 500 | CC(=O)N1c2ccccc2N(C(=O)COc2ccc(F)cc2)C[C@@H]1C [Example I-735] |
| > 10000 | > 500 | CC(=O)N1c2ccccc2N(C(=O)COc2cccc3ccccc23)C[C@@H]1C [Example I-736] |

| IC50 (BRD4 BD1) [nM] | IC50 (BRD4 BD2) [nM] | SMILES |
| --- | --- | --- |
| > 10000 | > 500 | CC(=O)N1c2ccccc2N(C(=O)[C@H]2COc3ccccc3O2)C[C@@H]1C [Example I-737] |
| > 10000 | > 500 | COCC(=O)N1C[C@H](C)N(C(C)=O)c2ccccc21 [Example I-738] |
| > 10000 | > 500 | CC(=O)N1c2ccccc2N(C(=O)Cc2csc3ccc(Cl)cc23)C[C@@H]1C [Example I-739] |
| > 10000 | > 500 | CO[C@@H](C(=O)N1C[C@H](C)N(C(C)=O)c2ccccc21)c1ccccc1 [Example I-740] |
| > 10000 | > 500 | CO[C@H](C(=O)N1C[C@H](C)N(C(C)=O)c2ccccc21)c1ccccc1 [Example I-741] |
| > 10000 | > 500 | CC(=O)N1c2ccccc2N(C(=O)c2ccc(Oc3ccccc3)cc2)C[C@@H]1C [Example I-742] |
| > 10000 | > 500 | CC(=O)N1c2ccccc2N(C(=O)c2ccc(Cl)cc2)C[C@@H]1C [Example I-743] |
| > 10000 | > 500 | CC(=O)N1c2ccccc2N(C(=O)c2ccccc2Oc2ccccc2)C[C@@H]1C [Example I-744] |
| > 10000 | > 500 | CC(=O)N1c2ccccc2N(C(=O)c2cccs2)C[C@@H]1C [Example I-745] |
| > 10000 | > 500 | CC(=O)N1c2ccccc2N(C(=O)c2cc3ccccc3s2)C[C@@H]1C [Example I-746] |
| > 10000 | > 500 | COc1cscc1C(=O)N1C[C@H](C)N(C(C)=O)c2ccccc21 [Example I-747] |
| > 10000 | > 500 | CC(=O)N1c2ccccc2N(C(=O)c2cc3ccccc3n2C)C[C@@H]1C [Example I-748] |
| > 10000 | > 500 | CC(=O)N1c2ccccc2N(C(=O)c2cc(C)oc2C)C[C@@H]1C [Example I-749] |
| > 10000 | > 500 | CC(=O)N1c2ccccc2N(C(=O)c2cc(C)c(C)o2)C[C@@H]1C [Example I-750] |
| > 10000 | > 500 | CC(=O)N1c2ccccc2N(C(=O)c2cc3ccccc3o2)C[C@@H]1C [Example I-751] |
| > 10000 | > 500 | CC(=O)N1c2ccccc2N(C(=O)c2cnc3ccccc3c2)C[C@@H]1C [Example I-752] |
| > 10000 | > 500 | COc1cc(C(=O)N2C[C@H](C)N(C(C)=O)c3ccccc32)nc2ccccc12 [Example I-753] |
| > 10000 | > 500 | CC(=O)N1c2ccccc2N(C(=O)c2ccnc3ccccc23)C[C@@H]1C [Example I-754] |
| > 10000 | > 500 | CC(=O)N1c2ccccc2N(C(=O)c2cc(C)n(C)n2)C[C@@H]1C [Example I-755] |
| > 10000 | > 500 | CC(=O)N1c2ccccc2N(C(=O)c2cnn(-c3ccccc3)c2C(F)(F)F)C[C@@H]1C [Example I-756] |
| > 10000 | > 500 | CC(=O)N1c2ccccc2N(C(=O)c2snnc2C)C[C@@H]1C [Example I-757] |
| > 10000 | > 500 | COc1ncccc1C(=O)N1C[C@H](C)N(C(C)=O)c2ccccc21 [Example I-758] |
| > 10000 | > 500 | CC(=O)N1c2ccccc2N(C(=O)c2cc3cc(Cl)ccc3o2)C[C@@H]1C [Example I-759] |
| > 10000 | > 500 | CC(=O)N1c2ccccc2N(C(=O)c2ccc3cc[nH]c3c2)CC1C (stereo not drawn) [Example I-760] |
| > 10000 | > 500 | CC(=O)N1c2ccccc2N(C(=O)c2csc(C(F)(F)F)n2)C[C@@H]1C [Example I-761] |
